pIC50, pKd: −log10 of the molar value. Read-outs that look alike come from different tables or passages of the source.
Tests used:
[1] = tested on: HT-29 cell; assay: Cell proliferation inhibitory activity (Cell-Titer-Glo), HT-29; assay type: cell-based; settings: Homo sapiens, HT-29, 72 h, 3 days incubation
From the text: (§1) Experimental Embodiment 2: Evaluation of Cell Proliferation Inhibitory Activity
(§2) Experiment objective: To detect cell proliferation inhibitory activity of the tested compounds.
(§3) Experimental principle: The luciferase in the Cell-Titer-Glo reagent produces oxyluciferin using luciferin, oxygen and ATP as reaction substrates, and releases energy in the form of light. Since the reaction of luciferase requires ATP, the total amount of light generated by the reaction is proportional to the total amount of ATP that reflects cell viability.
(§4) Cell lines: MCF-7 cell line […], HT-29 cell line (ATCC-HTB-38), OE21 (ECACC-96062201), NCI-N87 cell line (ATCC-CRL-5822)
(§5) Cell culture medium: (RPMI 1640 culture medium (Invitrogen #1868546; 10% serum Invitrogen #1804958; L-glutamine 1×, Invitrogen #1830863; dual antibiotic Hyclone #J170012))
(§6) Cell Titer-Glo® Luminescent Cell Viability Assay Kit (Promega #G7573)
(§7) The cells were inoculated in a 384- or 96-well plate with a density of 1000 cells per well and 25 μL per well according to the instructions of the cell inoculating plate. The edge wells were not inoculated with cells, and was supplemented with […].
(§8) (i) The mother solution of the compound was 10 mM, and diluted with DMSO to an initial concentration of 4 mM. The compound was added to the compound mother solution, 9 μL per well.
(§9) (ii) The compound was diluted with ECHO liquid-handling workstation. Each well of the cell plate was added with 125 nL compound. Each well of the cell wells in 2nd column and 23rd column was added with 125 nL DMSO, and each of the PBS wells in 1st column and 24th column was added with 125 nL DMSO.
(§10) (iii) Each well of the cell plate was supplemented with 25 μL culture medium, the final volume in each well of the cell plate was 50 μL, […] 3 times dilution, 10 concentrations, each concentration was duplicated in left and right wells, the final DMSO concentration was 0.25%.
(§11) 2.3. After addition of the compound, centrifugation was performed at 1000 rpm for 1 min, and the cell plate was placed in a 37° C., 5% CO2 incubator for 3 days.
(§12) The cell plate was taken out from the incubator and equilibrated at room temperature for 30 minutes. 25 μL Cell-Titer-Glo reagent was added to each well, shaken for one minute to mix thoroughly, centrifuged at 1000 rpm for 1 minute. After 10 minutes, the plate was read on PerkinElmer Envision with a […] reading time was set at 0.2 second.

[2] = tested on: OE21 cell; assay: Cell proliferation inhibitory activity (Cell-Titer-Glo), OE21; assay type: cell-based; settings: OE21, 72 h; 3 days incubation
From the text: as §1, §2, §3, §4, §5, §6, §7, §8, §9, §10, §11, §12

[3] = tested on: N87 cell; assay: Cell proliferation inhibitory activity (Cell-Titer-Glo), N87; assay type: cell-based; settings: 72 h; 3 days incubation
From the text: as §1, §2, §3, §4, §5, §6, §7, §8, §9, §10, §11, §12

[4] = Pharmacokinetic evaluation in plasma after IV and PO administration; assay type: in vivo; settings: female Balb/c mice; for AUC(0-inf) / AUC(0-t) / C0 / clearance / half-life / MRT inf / MRT last / Vd / Cmax / Tmax / bioavailability: mouse; for MRT inf: read-out: MRT0-inf; for MRT last: read-out: MRT0-last; for Vd: read-out: Vdss
Description: Experimental Embodiment 3: Pharmacokinetic Evaluation
The test compound was mixed with […] (Cremophor EL), vortexed and sonicated to prepare a 1 mg/mL near-clear solution, which was filtered with a microporous filter membrane for future use. Female Balb/c mice of 18 to 20 grams were selected and the solution of the test compound was administered intravenously at a dose of 1 or 2 mg/kg. The test compound was mixed with an aqueous solution of 1% Tween 80, 9% polyethylene glycol 400, and 90% water, vortexed and sonicated to prepare 1 mg/mL near-clear solution, which was filtered with a microporous filter membrane for future use.
Female Balb/c mice of 18 to 20 grams were selected, and the solution of the test compound was orally administered at a dose of 2 or 10 mg/kg. The whole blood was collected at a certain time, and prepared into plasma. The drug concentration was analyzed by LC-MS/MS, and the pharmacokinetic parameters were calculated using Phoenix WinNonlin software (Pharsight Corporation, USA).

[5] = target: T1, mTOR kinase (mTORC1 and mTORC2 kinase complex) (Homo sapiens, UniProt P42345); assay: In vitro evaluation of mTOR kinase inhibitory activity (DiscoverX ligand-bead competition binding, qPCR readout)
T1 construct: purchased DiscoverX; host or cells: HEK-293
Summary of the method: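 Tagged mTOR expressed in HEK-293 cells was combined with streptavidin beads carrying biotinylated ligand and DMSO-dissolved compound, shaken 1 h at room temperature. Beads were washed, then eluted 30 min with […] non-biotin affinity ligand. Kinase in eluate quantified by qPCR.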

CNC(=O)c1cccc(-c2ccc3c(N4CCOC[C@@H]4C)nc(N4CCOC[C@@H]4C)nc3n2)c1 [AZD2014, reference compound]
pIC50 [1]: 6.50
pIC50 [2]: 6.83
pIC50 [3]: 7.23
Tlast ([4]; IV 1 mg/kg): 8.00 h
AUCExtra ([4]; IV 2 mg/kg): 0.384%
AUMCExtra ([4]; IV 2 mg/kg): 2.95%
Tlast ([4]; IV 2 mg/kg): 8.00 h
AUCExtra ([4]; PO 2 mg/kg): 0.0496%
AUMCExtra ([4]; PO 2 mg/kg): 0.347%
Tlast ([4]; PO 2 mg/kg): 12.0 h
AUCExtra ([4]; PO 10 mg/kg): 0.156%
AUMCExtra ([4]; PO 10 mg/kg): 1.82%
Tlast ([4]; PO 10 mg/kg): 24.0 h
AUC(0-inf) ([4]; IV 1 mg/kg): 4.28 µM·h
AUC(0-t) ([4]; IV 1 mg/kg): 4.27 µM·h
C0 ([4]; IV 1 mg/kg): 4.79 µM
clearance ([4]; IV 1 mg/kg): 8.41 mL/min/kg
half-life ([4]; IV 1 mg/kg): 0.967 h
MRT inf ([4]; IV 1 mg/kg): 1.88 h
MRT last ([4]; IV 1 mg/kg): 0.268 h
Vd ([4]; IV 1 mg/kg): 0.677 L/kg
AUC(0-inf) ([4]; IV 2 mg/kg): 8.91 µM·h
AUC(0-t) ([4]; IV 2 mg/kg): 8.88 µM·h
C0 ([4]; IV 2 mg/kg): 8.07 µM
clearance ([4]; IV 2 mg/kg): 8.08 mL/min/kg
half-life ([4]; IV 2 mg/kg): 1.05 h
MRT inf ([4]; IV 2 mg/kg): 1.24 h
MRT last ([4]; IV 2 mg/kg): 1.2 h
Vd ([4]; IV 2 mg/kg): 0.599 L/kg
AUC(0-inf) ([4]; PO 2 mg/kg): 7.24 µM·h
AUC(0-t) ([4]; PO 2 mg/kg): 8.24 µM·h
Cmax ([4]; PO 2 mg/kg): 4.37 µM
Tmax ([4]; PO 2 mg/kg): 0.5 h
bioavailability ([4]; PO 2 mg/kg): 96.2%
half-life ([4]; PO 2 mg/kg): 1.14 h
MRT inf ([4]; PO 2 mg/kg): 1.95 h
MRT last ([4]; PO 2 mg/kg): 1.95 h
AUC(0-inf) ([4]; PO 10 mg/kg): 41.5 µM·h
AUC(0-t) ([4]; PO 10 mg/kg): 41.4 µM·h
Cmax ([4]; PO 10 mg/kg): 17 µM
Tmax ([4]; PO 10 mg/kg): 0.25 h
bioavailability ([4]; PO 10 mg/kg): 93.1%
half-life ([4]; PO 10 mg/kg): 3.46 h
MRT inf ([4]; PO 10 mg/kg): 2.5 h
MRT last ([4]; PO 10 mg/kg): 2.45 h

CNC(=O)c1cccc(-c2ccc3c(N4CCOC[C@@H]4C)nc(N4CCOC5(CCC5)C4)nc3n2)c1 [Embodiment 23]
pKd [5]: 9.42
pIC50 [1]: 6.22
pIC50 [2]: 6.59
pIC50 [3]: 7.03
AUCExtra ([4]; IV 2 mg/kg): 0.0592%
AUMCExtra ([4]; IV 2 mg/kg): 0.616%
Tlast ([4]; IV 2 mg/kg): 12.0 h
AUCExtra ([4]; PO 10 mg/kg): 0.414%
AUMCExtra ([4]; PO 10 mg/kg): 4.62%
Tlast ([4]; PO 10 mg/kg): 24.0 h
AUC(0-inf) ([4]; IV 2 mg/kg): 13.4 µM·h
AUC(0-t) ([4]; IV 2 mg/kg): 13.4 µM·h
C0 ([4]; IV 2 mg/kg): 12.2 µM
clearance ([4]; IV 2 mg/kg): 5.08 mL/min/kg
half-life ([4]; IV 2 mg/kg): 1.47 h
MRT inf ([4]; IV 2 mg/kg): 1.36 h
MRT last ([4]; IV 2 mg/kg): 1.35 h
Vd ([4]; IV 2 mg/kg): 0.414 L/kg
AUC(0-inf) ([4]; PO 10 mg/kg): 60.3 µM·h
AUC(0-t) ([4]; PO 10 mg/kg): 60.1 µM·h
Cmax ([4]; PO 10 mg/kg): 27.9 µM
Tmax ([4]; PO 10 mg/kg): 0.25 h
bioavailability ([4]; PO 10 mg/kg): 89.9%
half-life ([4]; PO 10 mg/kg): 2.61 h
MRT inf ([4]; PO 10 mg/kg): 2.49 h
MRT last ([4]; PO 10 mg/kg): 2.39 h

C[C@H]1COCCN1c1nc(N2CCOC3(CC3)C2)nc2nc(-c3cccc(C(N)=O)c3)ccc12 [Embodiment 51]
pKd [5]: 9.52
pIC50 [3]: 7.23
AUCExtra ([4]; IV 2 mg/kg): 0.0469%
AUMCExtra ([4]; IV 2 mg/kg): 0.400%
Tlast ([4]; IV 2 mg/kg): 12.0 h
AUCExtra ([4]; PO 10 mg/kg): 0.225%
AUMCExtra ([4]; PO 10 mg/kg): 1.02%
Tlast ([4]; PO 10 mg/kg): 12.0 h
AUC(0-inf) ([4]; IV 2 mg/kg): 9.37 µM·h
AUC(0-t) ([4]; IV 2 mg/kg): 9.73 µM·h
C0 ([4]; IV 2 mg/kg): 8.24 µM
clearance ([4]; IV 2 mg/kg): 7.72 mL/min/kg
half-life ([4]; IV 2 mg/kg): 1.1 h
MRT inf ([4]; IV 2 mg/kg): 1.6 h
MRT last ([4]; IV 2 mg/kg): 1.59 h
Vd ([4]; IV 2 mg/kg): 0.739 L/kg
AUC(0-inf) ([4]; PO 10 mg/kg): 42 µM·h
AUC(0-t) ([4]; PO 10 mg/kg): 41.9 µM·h
Cmax ([4]; PO 10 mg/kg): 12.8 µM
Tmax ([4]; PO 10 mg/kg): 0.25 h
bioavailability ([4]; PO 10 mg/kg): 89.5%
half-life ([4]; PO 10 mg/kg): 1.22 h
MRT inf ([4]; PO 10 mg/kg): 3.04 h
MRT last ([4]; PO 10 mg/kg): 3.02 h

From patent publication US11377444B2, “Pyridopyrimidine compounds acting as mTORC 1/2 dual inhibitors” (MEDSHINE DISCOVERY INC., priority 2017, dated 2022)
